Target: T1, human NOD2 (Homo sapiens, UniProt Q9HC29)
T1 construct: host or cells: HEK 293 (HEK-Blue Human NOD2 reporter cells)
Experiment: NOD2 specific reporter assay (SEAP)
Type: cell-based
Protocol: Muramyl dipeptide molecules have the ability to bind to NOD2 receptors that are present on […] the immune cells, so as to stimulate immune response. NOD2 (Nucleotide oligomerization domain) receptor is an intracellular pattern recognition receptor (PRRs) recognizes muramyl dipeptide derivatives and stimulates cascade of signalling pathways to induce immune response. […] These cells were prepared by co-transfection of human NOD2 gene and codon-optimized SEAP (secreted embryonic alkaline phosphatase) reporter gene into HEK 293 cells. Upon stimulation of cells with muramyl dipeptide derivative, NFkB gets activated, which intum secrets SEAP and it was measured in cell supernatant. Experimental details of this in-vitro assay are given as example 2.1.
HEK—Blue Human NOD2 reporter cells (5×10^4/well) were plated and cultured overnight in a humidified CO2 incubator at 37° C. […] Supernatant was collected and treated with Quanti blue detection reagent at 37° C. for 15-30 min. Absorbance was read at 630 nm. Dose response curve generated by plotting concentration of adjuvant on X-axis and % response on the Y-axis is as shown in FIG. 1. To generate dose response curve, highest absorbance shown at tested concentration was taken as 100% response and the least absorbance was taken as 0% response. Effective concentration at 50% (EC50) response was determined from the dose response curve.

T1 sequence (Q9HC29 whole entry): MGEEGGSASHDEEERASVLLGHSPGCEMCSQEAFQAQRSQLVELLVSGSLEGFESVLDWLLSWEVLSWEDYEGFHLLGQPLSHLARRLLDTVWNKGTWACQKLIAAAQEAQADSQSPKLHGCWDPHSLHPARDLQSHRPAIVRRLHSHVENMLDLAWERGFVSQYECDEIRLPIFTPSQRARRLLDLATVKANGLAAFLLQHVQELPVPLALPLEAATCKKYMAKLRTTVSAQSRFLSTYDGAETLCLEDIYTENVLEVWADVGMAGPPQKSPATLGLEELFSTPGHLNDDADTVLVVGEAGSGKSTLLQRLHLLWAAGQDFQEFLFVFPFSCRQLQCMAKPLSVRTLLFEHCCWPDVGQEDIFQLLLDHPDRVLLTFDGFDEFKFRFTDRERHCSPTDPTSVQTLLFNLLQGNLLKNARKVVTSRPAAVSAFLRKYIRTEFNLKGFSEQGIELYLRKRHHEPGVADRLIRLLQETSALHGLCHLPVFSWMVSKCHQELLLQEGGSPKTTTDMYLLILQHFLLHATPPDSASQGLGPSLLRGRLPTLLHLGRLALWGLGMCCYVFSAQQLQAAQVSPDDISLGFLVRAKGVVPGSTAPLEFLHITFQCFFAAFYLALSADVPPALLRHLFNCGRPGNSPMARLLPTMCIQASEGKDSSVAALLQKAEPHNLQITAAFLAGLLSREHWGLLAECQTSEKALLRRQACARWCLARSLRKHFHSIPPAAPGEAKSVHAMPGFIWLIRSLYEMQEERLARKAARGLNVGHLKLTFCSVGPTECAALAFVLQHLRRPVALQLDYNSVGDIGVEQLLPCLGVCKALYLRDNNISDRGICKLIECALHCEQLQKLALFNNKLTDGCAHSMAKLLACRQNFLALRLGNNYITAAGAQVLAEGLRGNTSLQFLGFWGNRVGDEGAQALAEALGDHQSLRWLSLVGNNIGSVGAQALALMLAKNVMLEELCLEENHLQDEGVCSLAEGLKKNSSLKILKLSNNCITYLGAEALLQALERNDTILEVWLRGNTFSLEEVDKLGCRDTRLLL

## C[C@H](NC(=O)[C@@H](C)O[C@H]1[C@H](O)[C@@H](CO)OC(O)[C@@H]1NC(=O)[C@H](O)CO)C(=O)N[C@H](CCC(=O)O)C(N)=O (stereo partly drawn) [MDP-MN, (4R)-5-amino-4-((2S)-2-((2R)-2-(((3R,4R,5S,6R)-3-((2,3-dihydroxypropanamido))-2,5-dihydroxy-6-(hydroxymethyl)tetrahydro-2H-pyran-4-yl)oxy)propanamido)propanamido)-5-oxopentanoic acid]
HEK-Blue Human NOD2 reporter cells, SEAP absorbance 630 nm, 24-72 hrs, read-out: EC50 (half maximal response) (converted)
  EC50: 2490 nM
At 0.01 μg/ml, normalized to least absorbance
  % response: 0%
At 10 μg/ml (plateau), normalized to highest absorbance
  % response: 100%

Source: patent US10576147B2, “Muramyl peptide derivative compound, synthesis and uses thereof” (BHARAT BIOTECH INTERNATIONAL LIMITED, priority 2015, dated 2020)
